Literature values as cited in patent US5246920A, “Treatment of hyperprolactinemia” (University of South Florida, priority 1992, dated 1993).
Where no end group is shown, it is not given here. [ ]: non-standard residue; d: D form.

Tested on: old rats
Details: peptides given individually

Substance	sensitivity of old rats to the individually administered peptides, in words
H[dW]AW[dF]K-NH2 [GHRP-6]	relatively insensitive
GHRH: Natural growth hormone releasing hormone, also known as growth hormone releasing factor (GHRF or GRF) (YADAIFTNSYRKVLGQLSARKLLQDIMSRQQGESNQERGARARL; ends and bridges not checked; UniProt P01286 32-75, looked up)	relatively insensitive
